In patent publication US10662228B2 (priority 2014, dated 2020):

Test system: potassium ion channel current of the DRG neurons
Type: cell-based, SD rats
Conditions: 5 mM

Question: How did the Current inhibition rate turn out when `Nc1ccncc1` [4AP, 4-aminopyridine] was run?
Answer: Its Current inhibition rate is 0.338.

Question: And the “Current recorded after loading” value?
Answer: Its value is 0.9766 nA.
